In US20230381473A1, “Drug Device Electroporation Angioplasty System” (Hydra Vascular LLC, priority 2014, published 2023):

Test: Ex vivo energy facilitated drug delivery from coated balloon to arteries in closed flow loop, HPLC quantification
Format: in vitro ADME, swine
Settings: ex vivo porcine arteries, Trireme Chocolate balloon 6.0×40 coated with paclitaxel:PEG-8000 5:1 at 3.0 ug/mm2, GenePulser II 0.5 kV/1 μF, 3 pulses during about 1 minute expansion, vs same device without voltage
Text: The energy source to power the device is a pulse generator capable of producing square waves. One commercial example of such a device is the BioRad Gene Pulser II (FIG. 7). The square wave generator produces suitable voltages between the range of 0.001 kV and 5 kV across the membrane. For all prototyping, this device was used to power all of coated catheters by connecting to the wire connection at the proximal catheter end. […] The tissue is then stored in isotonic saline and placed on ice (or 4° C.) for immediate use in an ex-vivo circulatory system.
Ex Vivo Testing Protocol • Fresh PBS is made with pre-measured pellets (1 pellet/100 ml H2O). • Porcine arterial tissue was acquired and cut to length • Arteries are placed in fresh PBS while cleaning of adventitia is performed. • Arteries are attached to the circulation apparatus with cannulas to allow flow through the vessel. […]

SMILES: CC(=O)O[C@H]1C(=O)[C@@]2(C)[C@H]([C@H](OC(=O)c3ccccc3)[C@]3(O)C[C@H](OC(=O)[C@H](O)[C@@H](NC(=O)c4ccccc4)c4ccccc4)C(C)=C1C3(C)C)[C@]1(OC(C)=O)CO[C@@H]1C[C@@H]2O [paclitaxel]
- enhancement of the transfer of paclitaxel to arteries by application of voltage (factor): 10 ×
